Assay results as given in US20220193241A1, “AGENT TARGETING DOUBLE-MEMBRANE ORGANELLE DNA” (CHIBA-PREFECTURE, priority 2019, published 2022).

Tests used:
Format in all cases: cell-based
[1] = tested on: A549 cells; experiment: MTT cell proliferation assay
Method: (§1) The A549 cells and the PC14 cells were inoculated at 5×10^3 cells/dish and 1×10^4 cells/dish, respectively, to 35 mm glass base dishes (IWAKI, Japan), cultured for 24 hours, and then treated with CCC021-TPP (final concentration: 20 μM). Further, 24 hours later, the culture solution was discarded, and a DMEM culture solution containing Mito Tracker(R) Red CMXRos (Life Technologies, USA) was added to attain 100 nM. 30 minutes later, the cells were washed twice with PBS, then fixed in 4% PFA for 30 minutes, then medium-replaced with PBS, preserved at 4° C., immunostained with the antibody by the method described in Example 1, and observed under confocal laser microscope SP8 (Leica, Germany). […] A549 and PC14 were each inoculated at 5×10^2 cells/well to 16 wells of a 96-well plate, cultured for 24 hours, and then treated with CCC021-TPP at 0, 1, 2, 5, 10, 25, and 50 μM each for 2 wells. 5 days later, the cells were reacted at room temperature for 2 hours using CytoSelect™ MTT Cell Proliferation Assay (Cosmo Bio Co., Ltd.), followed by the measurement of absorbance at 590 nm with SPECTRAFLUOR Plus (Tecan Group Ltd.) to conduct a rechallenge experiment of cell proliferation. […] 7 days later, as for change in the live cell numbers of the A549 cells and the PC14 cells, the live cell numbers were measured by trypan blue staining to experimentally examine cell survival rates.

[2] = tested on: PC14 cells; experiment: MTT cell proliferation assay; conditions: PC14, 5 days
Method: as §1

[3] = tested on: A549 cells; experiment: WST assay of cell proliferation (CCC021-TPP); conditions: Homo sapiens, 96 h; A549, 4 days
Method: (§2) The proliferation suppressive effect of CCC021-TPP on cells having the A14582G mtDNA mutation was evaluated by WST assay. Both the mitochondrial DNA mutated cell line A549 and a PC14 cell line having no mutation were inoculated at 1×10^3 cells/well to 96-well plates (Thermo Fisher Scientific), cultured for 24 hours, and then treated with CCC021-TPP (final concentration: 0, 1, 5, 10, 20, 25, 50, and 100 μM). The cells were further cultured for 4 days and then morphologically observed under optical microscope IX71 (OLYMPUS, Tokyo, Japan). Then, cell survival rates were calculated using Cell counting kit-8 (DOJINDO, Kumamoto, Japan) according to the instruction manual. DMSO (FUJIFILM Wako Pure Chemical Corp.) (final concentration: 1%) was added as a control to cells.
(§3) IC50 was calculated according to the following expression:
(§4) IC50=10(LOG(A/B)×(50−C)/(D−C)+LOG(B))

[4] = tested on: PC14 cells; experiment: WST assay of cell proliferation (CCC021-TPP); conditions: PC14, 4 days
Method: as §2, §3, §4

[5] = tested on: A549 cells; experiment: Long-term cell proliferation, cell numbers counted for 8 days; conditions: 20 μM
Method: (§5) The suppression of cell proliferation was further observed in the A549 and PC14 cells mentioned above for a long period. The observation was performed for 8 days under the culture conditions described above (both the mtDNA mutation cell line A549 and the PC14 cell line having no mutation were inoculated at 1×10^3 cells/well, cultured for 24 hours, and then treated with CCC021-TPP (final concentration: 20 μM)), and cell numbers were counted.

[6] = tested on: PC14 cells; experiment: as above; conditions: 20 μM
Method: as §5

[7] = tested on: A549 cells; experiment: Expression of inflammatory cytokines (SASP) by RT-qPCR; conditions: 5 days after treatment
Method: The expression of inflammation-related genes such as inflammatory cytokine genes is increased in senescent cells. It is known that a phenomenon called SASP (senescence-associated secretory phenotype) is thereby induced. In order to study whether this phenomenon was induced in the A549 cells, the cells were recovered 5 days after CCC021-TPP treatment in the same manner as in Example 1, and RNA extraction, RNA reverse-transcription, cDNA synthesis, and RT-qPCR were performed in the same manner as in Example 1 to examine the expression of inflammatory cytokines (IL-1A, IL-1B, IL-6, and IL-8) in the A549 cells and the PC14 cells. The primers used for the amplification of each gene are shown below. For qPCR, amplification was performed under conditions involving a holding stage of 50° C. for 2 min→95° C. for 10 min followed by 40 cycles of a cycling stage each involving 95° C. for 15 sec→60° C. for 1 min using Applied Biosystems(R) 7500 real-time PCR system, and melt curve analysis after amplification was conducted at a melt curve stage of 95° C. for 15 sec→60° C. for 1 min→95° C. for 15 sec→60° C. for 15 sec to confirm reaction specificity from the absence of primer dimer by-products or the like in PCR products.

[8] = tested on: A549 cells; experiment: Expression of apoptosis-related factors by RT-qPCR; conditions: 5 days after treatment
Method: Accordingly, as for the maintenance of senescent cells by the circumvention of apoptosis as well as change in the expression of anti-apoptotic factors BCL-XL, BCL2, and survivin and an pro-apoptotic factor BAX by CCC021-TPP treatment, the cells were recovered 5 days after CCC021-TPP treatment as described above, and RNA extraction, RNA reverse-transcription, cDNA synthesis, and RT-qPCR were performed in the same manner as in Example 1 to examine the expression of apoptosis-related factors (BCL-XL, BCL2, survivin, and BAX) in the A549 cells and the PC14 cells. The primers used for the amplification of each gene are shown below. For qPCR, amplification was performed under conditions involving a holding stage of 50° C. for 2 min→95° C. for 10 min followed by 40 cycles of a cycling stage each involving 95° C. for 15 sec→60° C. for 1 min using Applied Biosystems(R) 7500 real-time PCR system, and melt curve analysis after amplification was conducted at a melt curve stage of 95° C. for 15 sec→60° C. for 1 min→95° C. for 15 sec→60° C. for 15 sec to confirm reaction specificity from the absence of primer dimer by-products or the like in PCR products.

In the case of `CN(C)CCCNC(=O)CCNC(=O)c1cc(NC(=O)c2cc(NC(=O)CCNC(=O)c3nc(NC(=O)c4cc(NC(=O)c5cc(NC(=O)CCNC(=O)CCCC[P+](c6ccccc6)(c6ccccc6)c6ccccc6)cn5C)cn4C)cn3C)cn2C)cn1C` [CCC021-TPP], the “cell morphology after administration” value ([1]; A549) is reported as “senescent morphology”, the IC50 ([1]; Homo sapiens, 120 h, A549, 5 days) is reported as 7.97 µM and the “IC50 (MTT assay)” value [2] is reported as “incalculable”. The IC50 [3] was 78.9 µM, the “IC50 (WST assay)” value [4] was “incalculable” and the “cell number / proliferation” value [5] was “significant suppression of proliferation”. For the same compound, the “cell number / proliferation” value [6] was “neither significant difference in cell number nor a cell proliferation suppressive effect was found”, the “expression of IL-1A” value [7] was “significantly increased expression” and the “expression of IL-6” value [7] was “tendency to increase the expression”. The “expression of IL-8” value [7] was “significantly increased expression”, the “expression of anti-apoptotic factor BCL-XL” value [8] was “increased” and the “expression of pro-apoptotic factor BAX” value [8] was “increased expression”. For the same compound, the expression of survivin [8] was “decreased expression”.
